One assay has as its target T1, MAT2A homodimer (Homo sapiens, UniProt P31153).
T1 construct: inferred from the Ni sepharose purification and imidazole elution; made in house; host or cells: SF9 insect cells, recombinant baculovirus (Bac to Bac, pFASTBAC1)
The assay is described as follows: MAT2A biochemical assay (liberated phosphate, PiColorLock Gold). To be noted: Table 5a; MAT2A biochemical assay; read-out: Enzyme Inhibition. In short, it runs like this:
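Baculovirus/Sf9-expressed, Ni-purified MAT2A homodimer preincubated with compound 60 min at 25 °C, then reacted 60 min at 25 °C with substrate mix of 500 μM ATP and 400 μM L-methionine, pH 7.0 (mix, not final levels). Phosphate released with SAM measured by PiColorLock Gold against phosphate standard curve.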

Assay [1] has as its system SAM in HCT116 MTAP-deleted cells. The assay is described as follows: Cellular assay of target engagement (SAM), LC-MS/MS. To be noted: Homo sapiens, HCT-116, Table 5a, 72 h, read-out: Cell 72 h SAM Inhibition (MTAP −/−). It is filed as cell-based, human. A digest of the protocol:
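HCT116 cells with MTAP deleted were treated with compound for 72 h at 37°C/5% CO2. After quenching lysis in cold 80% methanol with 1 M acetic acid, SAM was quantified by LC-MS/MS against a d3-SAM internal standard.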

A further assay relates to HCT116 MTAP-/-. The assay is described as follows: Inhibition of cellular proliferation (Cell Titer Glo), HCT116 MTAP-/-. It is filed as cell-based, human. To be noted: Homo sapiens, HCT-116, 96 h, Table 5a, 4 days, read-out: 4 Day Relative Growth Inhibition (MTAP −/−). In short, it runs like this: (§1)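 Isogenic HCT116 MTAP+/+ and MTAP−/− cells were plated, treated with MAT2A inhibitor after 24 h, and incubated 4 days at 37 °C. Proliferation was read by CellTiter-Glo ATP luminescence, blank-subtracted and normalized to 0.2% DMSO control.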
(ATP-based viability assays read luminescence as a measure of living cells.)

The subject of the next assay is HCT116 MTAP+/+. Nature of the assay: Inhibition of cellular proliferation (Cell Titer Glo), HCT116 MTAP+/+. It is filed as cell-based. Conditions: Homo sapiens, HCT-116, 96 h, Table 5a, 4 days, read-out: 4 Day Relative Growth Inhibition (MTAP +/+). A digest of the protocol:
as §1

Some results are limits rather than exact numbers.

T1 sequence (P31153 whole entry): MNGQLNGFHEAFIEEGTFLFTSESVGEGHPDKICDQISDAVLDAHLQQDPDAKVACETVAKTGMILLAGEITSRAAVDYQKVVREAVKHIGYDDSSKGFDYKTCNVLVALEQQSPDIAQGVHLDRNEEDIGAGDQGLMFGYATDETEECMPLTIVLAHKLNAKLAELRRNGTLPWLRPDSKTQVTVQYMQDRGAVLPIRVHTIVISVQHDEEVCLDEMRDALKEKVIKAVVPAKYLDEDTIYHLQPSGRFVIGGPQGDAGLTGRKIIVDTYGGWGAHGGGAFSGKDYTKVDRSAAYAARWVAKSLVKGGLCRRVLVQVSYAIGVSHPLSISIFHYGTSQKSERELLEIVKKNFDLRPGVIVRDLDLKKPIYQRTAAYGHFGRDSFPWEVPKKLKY

Take `COc1ccc(N2C(=O)N(c3ccc4nn(C)cc4c3)Cc3ccc(NC4CCC4)nc32)cc1` [Example 162, 7-(cyclobutylamino)-1-(4-methoxyphenyl)-3-(2-methyl-2H-indazol-5-yl)-3,4-dihydropyrido[2,3-d]pyrimidin-2(1H)-one]: the IC50 on MAT2A homodimer is less than 100 nM; in assay [1] it was 100 to 1000 nM; with HCT116 MTAP-/-, 100 to 1000 nM; with HCT116 MTAP+/+, greater than 1000 nM.
Regarding `[2H]C([2H])([2H])Oc1ccc(N2C(=O)N(c3ccc4nn(C)cc4c3)Cc3ccc(OCCF)nc32)cc1` [Example 163, 7-(2-fluoroethoxy)-1-(4-methoxy-d3-phenyl)-3-(2-methyl-2H-indazol-5-yl)-3,4-dihydropyrido[2,3-d]pyrimidin-2(1H)-one], the IC50 at MAT2A homodimer was less than 100 nM; in assay [1], 100 to 1000 nM; in the assay with HCT116 MTAP-/-, 100 to 1000 nM; in the assay with HCT116 MTAP+/+ it was greater than 1000 nM.
As to `[2H]C([2H])([2H])Oc1ccc(N2C(=O)N(c3ccc4nn(C)cc4c3)Cc3ccc(OCC4CC4)nc32)cc1` [Example 164, 7-(cyclopropylmethoxy)-1-(4-methoxy-d3-phenyl)-3-(2-methyl-2H-indazol-5-yl)-3,4-dihydropyrido[2,3-d]pyrimidin-2(1H)-one], the IC50 was less than 100 nM at MAT2A homodimer, 100 to 1000 nM in assay [1], 100 to 1000 nM in the assay with HCT116 MTAP-/- and greater than 1000 nM in the assay with HCT116 MTAP+/+.
As to `[2H]C([2H])([2H])Oc1ccc(N2C(=O)N(c3ccc4nn(C)cc4c3)Cc3ccc(OCCC)nc32)cc1` [Example 165, 1-(4-methoxy-d3-phenyl)-3-(2-methyl-2H-indazol-5-yl)-7-propoxy-3,4-dihydropyrido[2,3-d]pyrimidin-2(1H)-one], the IC50 at MAT2A homodimer is less than 100 nM; in assay [1] it was 100 to 1000 nM; in the assay with HCT116 MTAP-/-, 100 to 1000 nM; with HCT116 MTAP+/+, greater than 1000 nM.
With `[2H]C([2H])([2H])Oc1ccc(N2C(=O)N(c3ccc4nn(C)cc4c3)Cc3ccc(OC(C)C)nc32)cc1` [Example 167, 7-isopropoxy-1-(4-methoxy-d3-phenyl)-3-(2-methyl-2H-indazol-5-yl)-3,4-dihydropyrido[2,3-d]pyrimidin-2(1H)-one], the IC50 on MAT2A homodimer is less than 100 nM; in assay [1], less than 100 nM; in the assay on HCT116 MTAP-/- it was less than 100 nM; in the assay on HCT116 MTAP+/+ it was greater than 1000 nM.
On to `[2H]C([2H])([2H])Oc1ccc(N2C(=O)N(c3ccc4nn(C)cc4c3)Cc3ccc(OC(C)C(F)F)nc32)cc1` (centres unmarked) [Example 168, 7-((1,1-difluoropropan-2-yl)oxy)-1-(4-methoxy-d3-phenyl)-3-(2-methyl-2H-indazol-5-yl)-3,4-dihydropyrido[2,3-d]pyrimidin-2(1H)-one], for which the IC50 at MAT2A homodimer is less than 100 nM; in assay [1] it was less than 100 nM; in the assay with HCT116 MTAP-/-, less than 100 nM; with HCT116 MTAP+/+ it was greater than 1000 nM.
For `Cn1cc2cc(N3Cc4ccc(OCC(F)F)nc4N(c4ccc5[nH]ccc5c4)C3=O)ccc2n1` [Example 169, 7-(2,2-difluoroethoxy)-1-(1H-indol-5-yl)-3-(2-methyl-2H-indazol-5-yl)-3,4-dihydropyrido[2,3-d]pyrimidin-2(1H)-one], the IC50 at MAT2A homodimer is less than 100 nM; in assay [1], less than 100 nM; with HCT116 MTAP-/- it was less than 100 nM; in the assay on HCT116 MTAP+/+ it was greater than 1000 nM.
Consider `Cn1cc2cc(N3Cc4ccc(OCC(F)F)nc4N(c4ccc5scnc5c4)C3=O)ccc2n1` [Example 170, 1-(benzo[d]thiazol-5-yl)-7-(2,2-difluoroethoxy)-3-(2-methyl-2H-indazol-5-yl)-3,4-dihydropyrido[2,3-d]pyrimidin-2(1H)-one], for which the IC50 at MAT2A homodimer is less than 100 nM; in assay [1] it was less than 100 nM; in the assay with HCT116 MTAP-/-, less than 100 nM; with HCT116 MTAP+/+ it was 100 to 1000 nM.
Take `Cn1cc2cc(N3Cc4ccc(OCC(F)F)nc4N(c4ccc5c(ccn5C)c4)C3=O)ccc2n1` [Example 172, 7-(2,2-difluoroethoxy)-1-(1-methyl-1H-indol-5-yl)-3-(2-methyl-2H-indazol-5-yl)-3,4-dihydropyrido[2,3-d]pyrimidin-2(1H)-one]: the IC50 on MAT2A homodimer was less than 100 nM; in assay [1] it was less than 100 nM; in the assay on HCT116 MTAP-/-, less than 100 nM; with HCT116 MTAP+/+ it was 100 to 1000 nM.
For `Cn1cc2cc(N3Cc4ccc(OCC(F)F)nc4N(c4ccc5ncccc5c4)C3=O)ccc2n1` [Example 175, 7-(2,2-difluoroethoxy)-3-(2-methyl-2H-indazol-5-yl)-1-(quinolin-6-yl)-3,4-dihydropyrido[2,3-d]pyrimidin-2(1H)-one], the IC50 at MAT2A homodimer was less than 100 nM; in assay [1] it was less than 100 nM; in the assay with HCT116 MTAP-/- it was 100 to 1000 nM; in the assay on HCT116 MTAP+/+, 100 to 1000 nM.
As for `Cn1cc2cc(N3Cc4ccc(OCC(F)F)nc4N(c4ccc5sncc5c4)C3=O)ccc2n1` [Example 176, 1-(benzo[d]isothiazol-5-yl)-7-(2,2-difluoroethoxy)-3-(2-methyl-2H-indazol-5-yl)-3,4-dihydropyrido[2,3-d]pyrimidin-2(1H)-one], the IC50 at MAT2A homodimer is less than 100 nM; in assay [1], 100 to 1000 nM; in the assay on HCT116 MTAP-/- it was 100 to 1000 nM; in the assay on HCT116 MTAP+/+, greater than 1000 nM.
Consider `Cn1cc2cc(N3Cc4ccc(OCC(F)F)nc4N(c4ccc5nscc5c4)C3=O)ccc2n1` [Example 177, 1-(benzo[c]isothiazol-5-yl)-7-(2,2-difluoroethoxy)-3-(2-methyl-2H-indazol-5-yl)-3,4-dihydropyrido[2,3-d]pyrimidin-2(1H)-one], for which the IC50 on MAT2A homodimer was less than 100 nM; in assay [1], less than 100 nM; with HCT116 MTAP-/-, 100 to 1000 nM; in the assay with HCT116 MTAP+/+, greater than 1000 nM.
As for `COC1CC=C(N2C(=O)N(c3ccc4nn(C)cc4c3)Cc3ccc(OCC(F)F)nc32)CC1` (centres unmarked) [Example 178, 7-(2,2-difluoroethoxy)-1-(4-methoxycyclohex-1-en-1-yl)-3-(2-methyl-2H-indazol-5-yl)-3,4-dihydropyrido[2,3-d]pyrimidin-2(1H)-one], the IC50 is less than 100 nM on MAT2A homodimer, less than 100 nM in assay [1], less than 100 nM in the assay on HCT116 MTAP-/- and 100 to 1000 nM in the assay on HCT116 MTAP+/+.
Regarding `Cn1cc2cc(N3Cc4ccc(OCC(F)F)nc4N(c4ccc5[nH]nnc5c4)C3=O)ccc2n1` [Example 179, 1-(1H-benzo[d][1,2,3]triazol-5-yl)-7-(2,2-difluoroethoxy)-3-(2-methyl-2H-indazol-5-yl)-3,4-dihydropyrido[2,3-d]pyrimidin-2(1H)-one], the IC50 at MAT2A homodimer was less than 100 nM; in assay [1], greater than 1000 nM; with HCT116 MTAP-/-, greater than 1000 nM; in the assay on HCT116 MTAP+/+ it was greater than 1000 nM.
With `COc1ccc(N2C(=O)N(c3ccc4nn(C)cc4c3)Cc3ncc(OCC(F)F)nc32)cc1` [Example 180, 7-(2,2-difluoroethoxy)-1-(4-methoxyphenyl)-3-(2-methyl-2H-indazol-5-yl)-3,4-dihydropteridin-2(1H)-one], the IC50 is less than 100 nM at MAT2A homodimer, less than 100 nM in assay [1], less than 100 nM with HCT116 MTAP-/- and 100 to 1000 nM in the assay on HCT116 MTAP+/+.
On to `[2H]C([2H])([2H])Oc1ccc(N2C(=O)N(c3ccc4nn(C)cc4c3)Cc3ncc(OCC(F)F)nc32)cc1` [Example 181, 7-(2,2-difluoroethoxy)-1-(4-(methoxy-d3)phenyl)-3-(2-methyl-2H-indazol-5-yl)-3,4-dihydropteridin-2(1H)-one], for which the IC50 on MAT2A homodimer was less than 100 nM; in assay [1], less than 100 nM; in the assay with HCT116 MTAP-/-, less than 100 nM; with HCT116 MTAP+/+ it was greater than 1000 nM.
With `Cn1cc2cc(N3Cc4ncc(OCC(F)F)nc4N(c4ccc(OC(F)F)cc4)C3=O)ccc2n1` [Example 182, 7-(2,2-difluoroethoxy)-1-(4-(difluoromethoxy)phenyl)-3-(2-methyl-2H-indazol-5-yl)-3,4-dihydropteridin-2(1H)-one], the IC50 was less than 100 nM at MAT2A homodimer, less than 100 nM in assay [1], 100 to 1000 nM in the assay with HCT116 MTAP-/- and 100 to 1000 nM in the assay on HCT116 MTAP+/+.
As to `CCOc1cnc2c(n1)N(c1ccc(OC(F)F)cc1)C(=O)N(c1ccc3nn(C)cc3c1)C2` [Example 183, 1-(4-(difluoromethoxy)phenyl)-7-ethoxy-3-(2-methyl-2H-indazol-5-yl)-3,4-dihydropteridin-2(1H)-one], the IC50 on MAT2A homodimer was less than 100 nM; in assay [1] it was less than 100 nM; in the assay on HCT116 MTAP-/-, 100 to 1000 nM; with HCT116 MTAP+/+, greater than 1000 nM.
Take `Cn1cc2cc(N3Cc4cc(F)c(OCC(F)F)nc4N(c4ccc(OC(F)F)cc4)C3=O)ccc2n1` [Example 184]: the IC50 at MAT2A homodimer was less than 100 nM; in assay [1], 100 to 1000 nM; in the assay on HCT116 MTAP-/- it was 100 to 1000 nM; with HCT116 MTAP+/+, greater than 1000 nM.
With `[2H]C([2H])([2H])Oc1ccc(N2C(=O)N(c3ccc4nn(C)cc4c3)Cc3c(C)cc(OCC(F)F)nc32)cc1` [Example 185, 7-(2,2-difluoroethoxy)-1-(4-methoxy-d3-phenyl)-5-methyl-3-(2-methyl-2H-indazol-5-yl)-3,4-dihydropyrido[2,3-d]pyrimidin-2(1H)-one], the IC50 on MAT2A homodimer was less than 100 nM; in assay [1] it was less than 100 nM; in the assay with HCT116 MTAP-/- it was less than 100 nM; with HCT116 MTAP+/+, 100 to 1000 nM.

The record behind these values is US20220098203A1 (priority 2018, published 2022).
